Assay results: publication PMC12692169, “Identification of Novel TAT-I24-Related Peptides with Antiviral Activities” (International Journal of Molecular Sciences, 2025)
Read-outs that look alike come from different tables or passages of the source. Positions of bridges follow the written chain, without caps; N, C: chain ends. Residues, ends and D or L forms follow the SMILES beside them. No end group written: not given here.

Experiments:
Baculovirus/HEK293 = conditions: for IC50: 24 h; for fold higher IC50 value compared to TAT-I24, baculovirus-transduced HEK293 cells: ratio to TAT-I24 IC50
[1] = test system: mouse cytomegalovirus (MCMV)/NIH/3T3 cells; conditions: 72 h
red blood cells (RBC) [2] = assay: RBC swelling (enlarged pellet after centrifugation); conditions: peptides diluted in PBS (absence of serum), up to 20 µM, 1 h, pellet size after centrifugation
plasmid-DNA (dsDNA) = assay: Fluorescence-based dsDNA-binding assay (SYBR Gold, plasmid DNA); conditions: TAT-I24 as reference, three independent experiments in duplicates
Protocol: We also included the TAT peptide, which binds DNA [34, 35].
Peptides were incubated with plasmid-DNA in the presence of SYBR^TM Gold dye. Reduction in fluorescence indicates binding of peptides to DNA. […] Curve fitting was performed using GraphPad Prism software.
DNA binding assay was performed, as described previously [26].

red blood cells (RBC) [3] = conditions: RBC 1 h 37 °C; for haemolysis: OD 450 nm of supernatant
Protocol: Figure 4 Effect of peptides on haemolysis and RBC swelling. (A,B) RBCs were isolated and treated in conical 96-well plates with peptides diluted in PBS or in 10% donor serum for one hour. OD [450 nm] was determined in the supernatants after centrifugation of the plates. Mean ± SD from two experiments in triplicates are shown. […] Dashed lines indicate background OD. (C) Swelling of RBC after treatment with dilutions of peptides in PBS for one hour and centrifugation of the plates. Red wells indicate an enlarged cell pellet due to swelling of the RBCs. Sequences of the peptides are shown at the right and are indicated in red with the TAT fusion partner indicated in blue.
Whole blood was collected from a healthy volunteer after informed consent by venipuncture into K2E K2EDTA VacuetteTM tubes (Greiner Bio-One, Kremsmünster, Austria) with 4 mL blood. The assay for haemolysis was adapted from Sæbo et al. and performed as described previously. In brief, blood was centrifuged at 1000× g for 10 min, and plasma kept for further use, followed by resuspension of red blood cells (RBC) in PBS and centrifugation for three times. RBC were seeded at a cell number of 1 × 10^7 cells/100 µL PBS per well into conical 96-well plates (ThermoFisher, Darmstadt, Germany) and incubated with 100 µL of 1:2 peptide dilutions starting from 40 µM either in PBS or 10% donor serum. Plates were incubated at 37 °C for one hour before at 1000× g for 5 min. Supernatants were then transferred to flat 96-well plates and optical density (OD) was determined at 450 nm using a Glo-Max®-Multi Detection System (Promega, Mannheim, Germany). As positive control, cells were lysed with 0.5% Triton X-100. Images from centrifuged plates were taken using a Kodak PIXPRO camera (Rochester, NY, USA).

[4] = test system: DiO-labelled MCMV in NIH/3T3 cells; conditions: previous study; cited from earlier work
Description: In contrast, the peptide TAT-M214, whi ...

| Compound | IC50 (Baculovirus/HEK293) [nM] | IC50 [1] [nM] | RBC swelling (red blood cells (RBC) [2]) | dsDNA-binding (reduction in SYBR Gold fluorescence) (plasmid-DNA (dsDNA)) | fold higher IC50 value compared to TAT-I24, baculovirus-transduced HEK293 cells (Baculovirus/HEK293) | haemolysis (red blood cells (RBC) [3]; 2.5 µM peptide diluted in PBS) [%] | haemolysis (red blood cells (RBC) [3]; 5 µM peptide diluted in PBS) [%] | haemolysis (red blood cells (RBC) [3]; 10 µM peptide diluted in PBS) [%] | haemolysis (red blood cells (RBC) [3]; 20 µM peptide diluted in PBS, two experiments in triplicates) [%] | haemolysis in the presence of 10% serum (red blood cells (RBC) [3]; peptide diluted in 10% donor serum) | effect on localization of DiO-labelled MCMV [4] |
| --- | --- | --- | --- | --- | --- | --- | --- | --- | --- | --- | --- |
| CC(C)C[C@H](NC(=O)[C@H](CS)NC(=O)[C@H](C)NC(=O)[C@H](Cc1ccc(O)cc1)NC(=O)[C@H](Cc1ccccc1)NC(=O)[C@H](C)NC(=O)[C@H](CC(C)C)NC(=O)[C@H](CCC(N)=O)NC(=O)[C@@H]1CCCN1C(=O)[C@@H]1CCCN1C(=O)[C@H](CCCNC(=N)N)NC(=O)[C@H](CCCNC(=N)N)NC(=O)[C@H](CCCNC(=N)N)NC(=O)[C@H](CCC(N)=O)NC(=O)[C@H](CCCNC(=N)N)NC(=O)[C@H](CCCNC(=N)N)NC(=O)[C@H](CCCCN)NC(=O)[C@H](CCCCN)NC(=O)[C@H](CCCNC(=N)N)NC(=O)CN)C(=O)N[C@@H](C)C(=O)N[C@@H](Cc1ccccc1)C(=O)N[C@@H](CS)C(=O)O [TAT-M14] (H-GRKKRRQRRRPPQLAFYACLAFC-OH; N-terminus and C-terminus assumed) | 34 | 2570 | caused RBC swelling at higher concentrations | bind dsDNA | – | – | – | – | – | – | – |
| CC(C)C[C@H](NC(=O)[C@H](CCC(N)=O)NC(=O)[C@@H]1CCCN1C(=O)[C@H](CO)NC(=O)[C@H](CS)NC(=O)[C@H](CCC(N)=O)NC(=O)[C@@H]1CCCN1C(=O)[C@@H]1CCCN1C(=O)[C@H](CCCNC(=N)N)NC(=O)[C@H](CCCNC(=N)N)NC(=O)[C@H](CCCNC(=N)N)NC(=O)[C@H](CCC(N)=O)NC(=O)[C@H](CCCNC(=N)N)NC(=O)[C@H](CCCNC(=N)N)NC(=O)[C@H](CCCCN)NC(=O)[C@H](CCCCN)NC(=O)[C@H](CCCNC(=N)N)NC(=O)CN)C(=O)N[C@@H](C)C(=O)N1CCC[C@H]1C(=O)N[C@@H](Cc1ccccc1)C(=O)N[C@@H](CS)C(=O)O [TAT-M41] (H-GRKKRRQRRRPPQCSPQLAPFC-OH; N-terminus and C-terminus assumed) | 434 | – | did not cause RBC swelling in the absence of serum even at 20 µM | less dsDNA-binding | approximately 20 fold | – | – | – | – | – | – |
| CC(C)C[C@H](NC(=O)[C@H](CO)NC(=O)[C@H](CC(C)C)NC(=O)[C@H](CCC(N)=O)NC(=O)[C@H](CS)NC(=O)[C@H](CCC(N)=O)NC(=O)[C@@H]1CCCN1C(=O)[C@@H]1CCCN1C(=O)[C@H](CCCNC(=N)N)NC(=O)[C@H](CCCNC(=N)N)NC(=O)[C@H](CCCNC(=N)N)NC(=O)[C@H](CCC(N)=O)NC(=O)[C@H](CCCNC(=N)N)NC(=O)[C@H](CCCNC(=N)N)NC(=O)[C@H](CCCCN)NC(=O)[C@H](CCCCN)NC(=O)[C@H](CCCNC(=N)N)NC(=O)CN)C(=O)N[C@@H](C)C(=O)N1CCC[C@H]1C(=O)N[C@@H](Cc1ccc(O)cc1)C(=O)N[C@@H](CS)C(=O)O [TAT-M42] (H-GRKKRRQRRRPPQCQLSLAPYC-OH; N-terminus and C-terminus assumed) | 378 | – | did not cause RBC swelling in the absence of serum even at 20 µM | less dsDNA-binding | approximately 20 fold | – | – | – | – | – | – |
| CC(C)C[C@H](NC(=O)[C@H](CO)NC(=O)[C@H](CS)NC(=O)[C@H](CCC(N)=O)NC(=O)[C@@H]1CCCN1C(=O)[C@@H]1CCCN1C(=O)[C@H](CCCNC(=N)N)NC(=O)[C@H](CCCNC(=N)N)NC(=O)[C@H](CCCNC(=N)N)NC(=O)[C@H](CCC(N)=O)NC(=O)[C@H](CCCNC(=N)N)NC(=O)[C@H](CCCNC(=N)N)NC(=O)[C@H](CCCCN)NC(=O)[C@H](CCCCN)NC(=O)[C@H](CCCNC(=N)N)NC(=O)CN)C(=O)N[C@@H](C)C(=O)N1CCC[C@H]1C(=O)N[C@@H](C)C(=O)N[C@@H](CC(N)=O)C(=O)N[C@H](C(=O)N[C@@H](CS)C(=O)O)[C@@H](C)O [TAT-M43] (H-GRKKRRQRRRPPQCSLAPANTC-OH; N-terminus and C-terminus assumed) | 306 | – | did not cause RBC swelling in the absence of serum even at 20 µM | less dsDNA-binding | approximately 20 fold | – | – | – | – | – | – |
| CC(C)C[C@H](NC(=O)[C@H](C)NC(=O)[C@H](Cc1ccc(O)cc1)NC(=O)[C@H](Cc1ccccc1)NC(=O)[C@H](C)NC(=O)[C@H](CC(C)C)NC(=O)[C@H](Cc1ccc(O)cc1)NC(=O)[C@@H]1CCCN1C(=O)[C@H](CCCNC(=N)N)NC(=O)[C@H](CCCNC(=N)N)NC(=O)[C@H](CCCNC(=N)N)NC(=O)[C@H](CCC(N)=O)NC(=O)[C@H](CCCNC(=N)N)NC(=O)[C@H](CCCNC(=N)N)NC(=O)[C@H](CCCCN)NC(=O)[C@H](CCCCN)NC(=O)[C@H](CCCNC(=N)N)NC(=O)CN)C(=O)N[C@@H](C)C(=O)N[C@@H](Cc1ccccc1)C(=O)N[C@@H](Cc1ccc(O)cc1)C(=O)N[C@@H](C)C(=O)N[C@@H](CS)C(=O)O [TAT-M214] (H-GRKKRRQRRRPYLAFYALAFYAC-OH) | 25 | 3670 | caused RBC swelling at higher concentrations | – | – | 14 | 29 | 37 | 43 | not in the presence of 10% serum | – |
| CLAFYACF (disulfide 1-7 (inferred)) [C22del_cyc, TAT-I24 with a cyclized I24 peptide (CLAFYACF), cyclized via the two cysteine residues; previous study] | – | – | – | – | – | – | – | – | – | – | no effect on localization of DiO-labelled MCMV |
